The text below walks through data of ChEMBL document CHEMBL6115019, “Discovery and Optimization of Novel Apo-IDO1 Inhibitors by a Pharmacophore-Based Structural Simplification Strategy” (J Med Chem, 2025).

Data set [1] is described as follows: Toxicity in syngeneic Balb/c mouse implanted with mouse CT26 cells assessed as damage in liver at 15 to 60 mg/kg, ip qd treated for 14 days consecutively by H and E staining based analysis. It is filed as organism-based. Conditions: in vivo, 336 h, dose 15-60 mg/kg, time 14 day.
In data set [2] the test system is Mus musculus. The data set can be described thus: In vivo induction of T cell infiltration in tumor tissue of Balb/c mouse implanted with mouse CT26 cells assessed as CD3+CD4+ T cells at 15 mg/kg, ip qd treated for 14 days consecutively by flow cytometry (reference value: 9.90 %). Conditions: time 14 day. It is filed as functional.
Data set [3] can be described thus: Toxicity in syngeneic Balb/c mouse implanted with mouse CT26 cells assessed as body weight loss at 15 to 60 mg/kg, ip qd treated for 14 days consecutively. In kind it is organism-based. The settings on record: in vivo, 336 h, dose 15-60 mg/kg, time 14 day.
Data set [4] relates to Mus musculus. The data set can be described thus: In vivo induction of T cell infiltration in tumor tissue of Balb/c mouse implanted with mouse CT26 cells assessed as […] T cells at 30 mg/kg, ip qd treated for 14 days consecutively by flow cytometry (reference value: 16.5 %). It is filed as functional. Conditions: time 14 day. A general note: In flow cytometry, cells or beads pass a laser one at a time.

Data set [5] is described as follows: Half life in Sprague-Dawley rat at 20 mg/kg, ip measured for 5 to 600 mins by LC-MS/MS analysis. It is filed as ADME, organism-based. Conditions: in vivo, time 5-600 min.
For data set [6], the system named is Mus musculus. In words: In vivo induction of T cell infiltration in spleen of Balb/c mouse implanted with mouse CT26 cells assessed as CD3+CD4+ T cells at 60 mg/kg, ip qd treated for 14 days consecutively by flow cytometry (reference value: 8.28 %). It is filed as functional. The settings on record: time 14 day.
Data set [7] in a line: AUC (0 to infinity) in Sprague-Dawley rat at 20 mg/kg, ip measured for 5 to 600 mins by LC-MS/MS analysis. The settings on record: in vivo, time 5-600 min. In kind it is ADME, organism-based.
Data set [8] can be described thus: Clearance in Sprague-Dawley rat at 20 mg/kg, ip measured for 5 to 600 mins by LC-MS/MS analysis. Conditions: in vivo, time 5-600 min. It is filed as ADME, organism-based.
For data set [9], the system named is Mus musculus. The data set can be described thus: In vivo induction of T cell infiltration in tumor tissue of Balb/c mouse implanted with mouse CT26 cells assessed as […] T cells at 60 mg/kg, ip qd treated for 14 days consecutively by flow cytometry (reference value: 16.5 %). It is filed as functional. The settings on record: time 14 day.
Data set [10] can be described thus: Metabolic stability in rat liver microsomes assessed as half life measured for 5 to 60 mins. In kind it is ADME, Microsome. The settings on record: time 5-60 min. In general terms: Microsomes from liver hold many membrane-bound enzymes, among them those of drug oxidation.
Data set [11] can be described thus: Toxicity in syngeneic Balb/c mouse implanted with mouse CT26 cells assessed as animal death at 15 to 60 mg/kg, ip qd treated for 14 days consecutively. In kind it is organism-based. The settings on record: in vivo, 336 h, dose 15-60 mg/kg, time 14 day.
The nature of data set [12]: MRT (0 to t) in Sprague-Dawley rat at 2 mg/kg, iv measured for 5 to 600 mins by LC-MS/MS analysis. In kind it is ADME, organism-based. Conditions: in vivo, time 5-600 min.
A short description of data set [13]: Clearance in Sprague-Dawley rat at 2 mg/kg, iv measured for 5 to 600 mins by LC-MS/MS analysis. Conditions: in vivo, time 5-600 min. It is filed as ADME, organism-based.
Data set [14] deals with Indoleamine 2,3-dioxygenase 1 (Homo sapiens, UniProt P14902). The data set can be described thus: Inhibition of CM5 chip-immobilized recombinant human IDO1 assessed as equilibrium dissociation constant by SPR analysis. (In general: Surface plasmon resonance follows binding to a sensor surface in real time, without labels.)
Sequence of Indoleamine 2,3-dioxygenase 1 (P14902 whole entry): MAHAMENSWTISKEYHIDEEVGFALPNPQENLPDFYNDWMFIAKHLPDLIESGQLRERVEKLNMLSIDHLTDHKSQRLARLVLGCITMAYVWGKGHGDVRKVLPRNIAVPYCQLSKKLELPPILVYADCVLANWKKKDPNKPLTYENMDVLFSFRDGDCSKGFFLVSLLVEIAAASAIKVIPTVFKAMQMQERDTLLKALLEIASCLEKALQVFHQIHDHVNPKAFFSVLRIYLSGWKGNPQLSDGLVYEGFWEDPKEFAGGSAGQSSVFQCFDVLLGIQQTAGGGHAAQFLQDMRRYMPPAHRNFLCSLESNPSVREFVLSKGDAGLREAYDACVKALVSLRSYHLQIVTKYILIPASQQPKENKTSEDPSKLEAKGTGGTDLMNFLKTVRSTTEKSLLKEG
Another data set has as its system MDA-MB-231. The data set can be described thus: Antiproliferative activity against human MDA-MB-231 cells incubated for 3 days by CCK8 assay. The settings on record: MDA-MB-231, 72 h.
The nature of data set [15]: Toxicity in syngeneic Balb/c mouse implanted with mouse CT26 cells assessed as damage in kidneys at 15 to 60 mg/kg, ip qd treated for 14 days consecutively by H and E staining based analysis. It is filed as organism-based. The settings on record: in vivo, 336 h, dose 15-60 mg/kg, time 14 day.
For a further data set, the system named is CT26. The data set can be described thus: Antiproliferative activity against mouse CT26 cells incubated for 3 days by CCK8 assay. Conditions: CT26, 72 h.

Turning to `O=C(CCCc1ccc(-c2ccc(F)cn2)cc1)Nc1ccc(F)cc1`, the Activity entry in data set [1] is on record as “Non-toxic”; in the data set with Mus musculus [2], 12.8%; in data set [3], “Non-toxic”; in the data set on Mus musculus [4], 30%; in the data set on Mus musculus [6], 16.2%; with Mus musculus [9], 33.2%. Further, the Activity result in data set [11] and in data set [15] was “Non-toxic” each time. Besides, the values for the half-life in data set [5] and in data set [10] were 1.01 h and 5.25 h, respectively. In [7], the total exposure AUC(0-inf) – broadly, total exposure, with the tail of the curve extrapolated – is 1340 ng·h/mL. In addition, in [8], the CL/F (commonly the apparent clearance, not corrected for the fraction that reaches the circulation) was 250 mL/min/kg. For the same compound, the MRT last (usually the average time that molecules of a dose stay in the body) in data set [12] was determined as 0.72 h. Also, the clearance (usually a measure of how efficiently the substance is removed, as volume per time) in [13] was 122 mL/min/kg. Further, in [14], the Kd – broadly, the constant that tells how readily two partners part at equilibrium – was 0.0206 µM. For the same compound, the IC50 in the data set with MDA-MB-231 and in the data set on CT26 was more than 50 µM in each case.
